{"source": "patent US9669141B2", "about": "“Tissue-engineered pumps and valves and uses thereof” (President and Fellows of Harvard College, priority 2012, dated 2017)", "data": [{"system": "Jellyfish swimming muscle", "test": "Excitation-contraction uncoupling of jellyfish swimming muscle during optical mapping", "format": "in vivo, Aurelia aurita", "details": "juvenile jellyfish, artificial seawater at room temperature", "method": "PMDS-coated glass cover slips with cardiomyocyte monolayers of medusoid muscle architecture were assayed in a custom-made optical mapping system (FIGS. 7i-o) by adapting previously described protocols. Briefly, the cultures were incubated for 5 minutes in 8 μM RH-237 voltage-sensitive dye (Iex/Iem in DMSO=˜550/˜800 nm; Molecular Probes) in Tyrode's solution, then washed with Tyrode's solution. During recording, the tissue was placed in Tyrode's solution containing 10 μM excitation-contraction uncoupler blebbistatin, thereby minimizing motion artifacts. All solutions were maintained at 35-37° C. A platinum point electrode connected to a Grass S48 stimulator (Grass technologies, West Warwick, R.I. 02893, USA) was placed ˜1 mm above the culture surface (FIG. 7i) and used to apply point stimuli (2 Hz, 5-8 V, 10-ms duration). Imaging was performed using an inverted microscope (Zeiss Axiovert 200; Carl Zeiss MicroImaging, LLC Thornwood, N.Y. 10594, USA) equipped with a 40× Plan-Neofluar (1.3 NA) oil-immersion objective, a fluorescence light source (Hamamatsu L2422 100 Watt Mercury-Xenon lamp) and a filter cube appropriate for RH237 imaging (Zeiss EX BP530-585, DC FT600, EM LP615). Fluorescence shutter opening and closing was synchronized with the pacing stimulus. Membrane voltage signals were optically recorded at 5 Hz using a honeycomb of 124 independent optical fibers, each monitoring an approximately circular field of view of 25 μm in diameter (FIGS. 6j and 6k) and each connected to a discrete photodiode transimpedance amplifier. The outputs of the photodiode amplifiers were digitized by a bank of differential amplifiers and DAQ cards (National Instruments Corporation, Austin, Tex. 78759, USA). Digitized signals were processed using custom-made software implemented in MATLAB (MathWorks, Natick, Mass. 01760, USA) (FIG. 7l). Activation times, defined as the time point of maximum positive slope of the action potential, served to calculate isochronal maps of activation and velocity vector fields across the field of view monitored by the LED array (FIGS. 7m and 7o).\nOptical mapping in jellyfish (FIG. 7a-7h) was performed as in medusoid coverslips except for the following differences. All procedures were carried out in artificial seawater at room temperature (KENT Marine Sea Salt, KENT Marine Sea, 5401 West Oakwood Park Drive, Franklin, Wis. 53132). […] Thus, to constrain movement, an additional cover slip was placed on top of the jellyfish using vacuum grease as a spacer. […] Subsequently, activation times, isochronal maps and velocity vector fields were calculated as above (FIGS. 7e-7h).", "values": [{"smiles": "CC(=O)C(C)=NO", "note": "[2,3-butanedione monoxime (BDM), 2,3-butanedione monoxime]", "sensitivity of jellyfish swimming muscle to excitation-contraction uncoupling agents": "insensitive"}, {"smiles": "Cc1ccc2c(c1)C(=O)C1(O)CCN(c3ccccc3)C1=N2", "note": "(stereo not shown) [blebbistatin]", "sensitivity of jellyfish swimming muscle to excitation-contraction uncoupling agents": "insensitive"}, {"smiles": "C=C1[C@@H](C)[C@H]2[C@H](Cc3ccccc3)NC(=O)[C@]23[C@H](OC(C)=O)/C=C/[C@@](C)(O)C(=O)[C@@H](C)C/C=C/[C@H]3[C@@H]1O", "note": "[cytochalasin D]", "sensitivity of jellyfish swimming muscle to excitation-contraction uncoupling agents": "insensitive"}, {"smiles": "O=C1CN(/N=C/c2ccc(-c3ccc([N+](=O)[O-])cc3)o2)C(O)=N1", "note": "[dantrolene sodium]", "sensitivity of jellyfish swimming muscle to excitation-contraction uncoupling agents": "insensitive"}]}]}
